# Results from PubChem BioAssay (NCI).
#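 Growth conditions: 96-well plates. Treatment: test compound, 48 hours, 5 concentrations. Analysis: linear interpolation between bracketing concentrations; unreached endpoints set to highest concentration. TGI is the concentration that stops growth completely.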
# Columns and labels:
# Test in all cases: growth of human tumour cells (NCI), 48 h
# SK-MEL-5 melanoma = system: SK-MEL-5 melanoma
# SF-268 CNS = system: SF-268 CNS
# 786-0 renal = system: 786-0 renal
# NCI-H226 lung = system: NCI-H226 lung
# CCRF-CEM leukemia = system: CCRF-CEM leukemia
# BT-549 breast = system: BT-549 breast
# SF-295 CNS = system: SF-295 CNS
# MALME-3M melanoma = system: MALME-3M melanoma
# NCI-H460 lung = system: NCI-H460 lung
# COLO 205 colon = system: COLO 205 colon
# PC-3 prostate = system: PC-3 prostate
# OVCAR-5 ovarian = system: OVCAR-5 ovarian
# U251 CNS = system: U251 CNS
# NCI/ADR-RES ovarian = system: NCI/ADR-RES ovarian
# SF-539 CNS = system: SF-539 CNS
# MDA-MB-435 = system: MDA-MB-435
# KM12 colon = system: KM12 colon
# UACC-257 melanoma = system: UACC-257 melanoma
# SK-MEL-2 melanoma = system: SK-MEL-2 melanoma
# TK-10 renal = system: TK-10 renal
# UACC-62 melanoma = system: UACC-62 melanoma
# SK-OV-3 ovarian = system: SK-OV-3 ovarian
# CAKI-1 renal = system: CAKI-1 renal
# T-47D breast = system: T-47D breast
# HS 578T breast = system: HS 578T breast
# UO-31 renal = system: UO-31 renal
# HCT-116 colon = system: HCT-116 colon
# MDA-MB-231 breast = system: MDA-MB-231 breast
# NCI-H522 lung = system: NCI-H522 lung
# SN12C renal = system: SN12C renal
# HOP-92 NSCLC = system: HOP-92 NSCLC
# SW-620 colon = system: SW-620 colon
# MDA-N = system: MDA-N
# NCI-H23 lung = system: NCI-H23 lung
# OVCAR-8 ovarian = system: OVCAR-8 ovarian
# K-562 leukemia = system: K-562 leukemia
# ACHN renal = system: ACHN renal
# HT29 colon = system: HT29 colon
# OVCAR-4 ovarian = system: OVCAR-4 ovarian
# A498 renal = system: A498 renal
# SR leukemia = system: SR leukemia
# SNB-19 CNS = system: SNB-19 CNS
# RPMI-8226 leukemia = system: RPMI-8226 leukemia
# HL-60(TB) leukemia = system: HL-60(TB) leukemia
# A549 NSCLC = system: A549 NSCLC
# SK-MEL-28 melanoma = system: SK-MEL-28 melanoma
# MOLT-4 leukemia = system: MOLT-4 leukemia
# IGROV1 ovarian = system: IGROV1 ovarian
# HCT-15 colon = system: HCT-15 colon
# M14 melanoma = system: M14 melanoma
# DU-145 prostate = system: DU-145 prostate
# EKVX NSCLC = system: EKVX NSCLC
# LOX IMVI melanoma = system: LOX IMVI melanoma
# HOP-62 NSCLC = system: HOP-62 NSCLC
# SNB-75 CNS = system: SNB-75 CNS
# MCF7 breast = system: MCF7 breast
# HCC-2998 colon = system: HCC-2998 colon
# OVCAR-3 ovarian = system: OVCAR-3 ovarian
# RXF 393 renal = system: RXF 393 renal
smiles,measurement,setting,value
O=C(O)c1cnc(-n2[nH]c3c(c2=O)CCCC3)[nH]c1=O,TGI,SK-MEL-5 melanoma,> 100 µM
same,TGI,SF-268 CNS,> 100 µM
same,TGI,786-0 renal,> 100 µM
same,TGI,NCI-H226 lung,> 100 µM
same,TGI,CCRF-CEM leukemia,> 100 µM
same,TGI,BT-549 breast,> 100 µM
same,TGI,SF-295 CNS,> 100 µM
same,TGI,MALME-3M melanoma,> 100 µM
same,TGI,NCI-H460 lung,> 100 µM
same,TGI,COLO 205 colon,> 100 µM
same,TGI,PC-3 prostate,> 100 µM
same,TGI,OVCAR-5 ovarian,> 100 µM
same,TGI,U251 CNS,> 100 µM
same,TGI,NCI/ADR-RES ovarian,> 100 µM
same,TGI,SF-539 CNS,> 100 µM
same,TGI,MDA-MB-435,> 100 µM
same,TGI,KM12 colon,> 100 µM
same,TGI,UACC-257 melanoma,> 100 µM
same,TGI,SK-MEL-2 melanoma,> 100 µM
same,TGI,TK-10 renal,> 100 µM
same,TGI,UACC-62 melanoma,> 100 µM
same,TGI,SK-OV-3 ovarian,> 100 µM
same,TGI,CAKI-1 renal,> 100 µM
same,TGI,T-47D breast,> 100 µM
same,TGI,HS 578T breast,> 100 µM
same,TGI,UO-31 renal,> 100 µM
same,TGI,HCT-116 colon,> 100 µM
same,TGI,MDA-MB-231 breast,> 100 µM
same,TGI,NCI-H522 lung,> 100 µM
same,TGI,SN12C renal,> 100 µM
same,TGI,HOP-92 NSCLC,> 100 µM
same,TGI,SW-620 colon,> 100 µM
same,TGI,MDA-N,> 100 µM
same,TGI,NCI-H23 lung,> 100 µM
same,TGI,OVCAR-8 ovarian,> 100 µM
same,TGI,K-562 leukemia,> 100 µM
same,TGI,ACHN renal,> 100 µM
same,TGI,HT29 colon,> 100 µM
same,TGI,OVCAR-4 ovarian,> 100 µM
same,TGI,A498 renal,> 100 µM
same,TGI,SR leukemia,> 100 µM
same,TGI,SNB-19 CNS,> 100 µM
same,TGI,RPMI-8226 leukemia,> 100 µM
same,TGI,HL-60(TB) leukemia,> 100 µM
same,TGI,A549 NSCLC,> 100 µM
same,TGI,SK-MEL-28 melanoma,> 100 µM
same,TGI,MOLT-4 leukemia,> 100 µM
same,TGI,IGROV1 ovarian,> 100 µM
same,TGI,HCT-15 colon,> 100 µM
same,TGI,M14 melanoma,> 100 µM
same,TGI,DU-145 prostate,> 100 µM
same,TGI,EKVX NSCLC,> 100 µM
O=c1oc2ccccc2cc1-c1cn2c(n1)sc1ccccc12,TGI,SK-MEL-5 melanoma,> 100 µM
same,TGI,SF-268 CNS,> 100 µM
same,TGI,LOX IMVI melanoma,> 100 µM
same,TGI,786-0 renal,> 100 µM
same,TGI,NCI-H226 lung,> 100 µM
same,TGI,CCRF-CEM leukemia,> 100 µM
same,TGI,BT-549 breast,> 100 µM
same,TGI,SF-295 CNS,> 100 µM
same,TGI,NCI-H460 lung,> 100 µM
same,TGI,HOP-62 NSCLC,> 100 µM
same,TGI,COLO 205 colon,> 100 µM
same,TGI,PC-3 prostate,> 100 µM
same,TGI,SNB-75 CNS,> 100 µM
same,TGI,U251 CNS,> 100 µM
same,TGI,NCI/ADR-RES ovarian,> 100 µM
same,TGI,SF-539 CNS,> 100 µM
same,TGI,MDA-MB-435,> 100 µM
same,TGI,KM12 colon,> 100 µM
same,TGI,MCF7 breast,77.4 µM
same,TGI,UACC-257 melanoma,> 100 µM
same,TGI,SK-MEL-2 melanoma,> 100 µM
same,TGI,TK-10 renal,> 100 µM
same,TGI,UACC-62 melanoma,> 100 µM
same,TGI,SK-OV-3 ovarian,> 100 µM
same,TGI,CAKI-1 renal,> 100 µM
same,TGI,T-47D breast,> 100 µM
same,TGI,HS 578T breast,> 100 µM
same,TGI,UO-31 renal,> 100 µM
same,TGI,HCT-116 colon,> 100 µM
same,TGI,MDA-MB-231 breast,> 100 µM
same,TGI,NCI-H522 lung,> 100 µM
same,TGI,SN12C renal,> 100 µM
same,TGI,HOP-92 NSCLC,> 100 µM
same,TGI,HCC-2998 colon,> 100 µM
same,TGI,OVCAR-3 ovarian,> 100 µM
same,TGI,SW-620 colon,> 100 µM
same,TGI,MDA-N,> 100 µM
same,TGI,NCI-H23 lung,> 100 µM
same,TGI,OVCAR-8 ovarian,> 100 µM
same,TGI,K-562 leukemia,> 100 µM
same,TGI,RXF 393 renal,> 100 µM
same,TGI,ACHN renal,> 100 µM
same,TGI,HT29 colon,11.8 µM
same,TGI,SR leukemia,> 100 µM
same,TGI,RPMI-8226 leukemia,> 100 µM
same,TGI,HL-60(TB) leukemia,> 100 µM
same,TGI,A549 NSCLC,> 100 µM
same,TGI,SK-MEL-28 melanoma,> 100 µM
same,TGI,MOLT-4 leukemia,> 100 µM
same,TGI,IGROV1 ovarian,> 100 µM
same,TGI,HCT-15 colon,> 100 µM
same,TGI,M14 melanoma,> 100 µM
same,TGI,DU-145 prostate,> 100 µM
same,TGI,EKVX NSCLC,34.3 µM
